Reference: PubChem BioAssay (NCI)
Values joined by “and” are separate entries in the source; they are usually repeats but may differ in a detail not shown here. Equal entries are not always repeated.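 Exposure lasted 48 hours, with cells grown in 96-well plates and compounds tested at five concentrations. GI50 = concentration required for 50% inhibition of growth. At the TGI there is no net growth.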

Tests used:
Assay in all cases: NCI tumour cell line growth inhibition, 48 h
MDA-MB-231 breast = tested on: MDA-MB-231 breast
SK-MEL-5 melanoma = tested on: SK-MEL-5 melanoma
A549 NSCLC = tested on: A549 NSCLC
SK-OV-3 ovarian = tested on: SK-OV-3 ovarian
SK-MEL-2 melanoma = tested on: SK-MEL-2 melanoma
OVCAR-3 ovarian = tested on: OVCAR-3 ovarian
NCI/ADR-RES ovarian = tested on: NCI/ADR-RES ovarian
SN12C renal = tested on: SN12C renal
T-47D breast = tested on: T-47D breast
CAKI-1 renal = tested on: CAKI-1 renal

| Compound | GI50 (MDA-MB-231 breast) | TGI (MDA-MB-231 breast) | GI50 (SK-MEL-5 melanoma) | TGI (SK-MEL-5 melanoma) | TGI (A549 NSCLC) [µM] | GI50 (SK-OV-3 ovarian) | TGI (SK-OV-3 ovarian) | GI50 (SK-MEL-2 melanoma) | TGI (SK-MEL-2 melanoma) | GI50 (OVCAR-3 ovarian) | TGI (OVCAR-3 ovarian) | TGI (NCI/ADR-RES ovarian) [µM] | GI50 (SN12C renal) | TGI (SN12C renal) | GI50 (T-47D breast) | TGI (T-47D breast) | TGI (CAKI-1 renal) [µM] | GI50 (A549 NSCLC) [µM] | GI50 (NCI/ADR-RES ovarian) [µM] | GI50 (CAKI-1 renal) [µM] |
| --- | --- | --- | --- | --- | --- | --- | --- | --- | --- | --- | --- | --- | --- | --- | --- | --- | --- | --- | --- | --- |
| CC(=O)OCC1OC(n2c(S)c(C#N)c(-c3ccccc3)c(C#N)c2=O)C(OC(C)=O)C(OC(C)=O)C1OC(C)=O (configuration not stated) | > 71.9 µM and 22.1 µM | > 100 µM and 83.7 µM | > 100 µM and 20.2 µM | > 100 µM and 41.6 µM | > 100 | 99.5 µM and 32.1 µM | > 100 µM and 96.6 µM | > 61.6 µM and 13.6 µM | > 100 µM and 31.8 µM | > 100 µM and 19.5 µM | > 100 µM and 36.9 µM | > 100 | > 100 µM and 25.2 µM | > 100 µM and 81.7 µM | > 100 µM and 18.6 µM | > 100 µM and 54.4 µM | > 100 | – | – | – |
| O=C(O)[C@H](CCC[C@H]1C(=O)O[C@H](c2ccccc2)[C@H](c2ccccc2)N1C(=O)OCc1ccccc1)N[C@@H](c1ccccc1)[C@H](O)c1ccccc1 | – | 33.1 µM | – | 43 µM | > 100 | – | > 100 µM | – | 40.8 µM | – | 48.4 µM | > 100 | – | 42.1 µM | – | > 100 µM | > 100 | – | – | – |
| C(#CP(c1ccccc1)c1ccccc1)P(C#CP(c1ccccc1)c1ccccc1)c1ccccc1 | – | > 100 µM | – | > 100 µM | > 100 | – | 26.1 µM | – | > 100 µM | – | > 100 µM | > 100 | – | > 100 µM | – | > 100 µM | > 100 | – | – | – |
| OC1(c2ccc(Cl)cc2)c2ccccc2-c2nc3ccccc3n21 (configuration not stated) | – | > 100 µM | – | > 100 µM | > 100 | – | > 100 µM | – | > 100 µM | – | > 100 µM | > 100 | – | > 100 µM | – | > 100 µM | > 100 | – | – | – |
| CC1=CP(=O)(c2c(C(C)C)cc(C(C)C)cc2C(C)C)CCC1Cl (configuration not stated) | – | 30.7 µM | – | 31.7 µM | 32.7 | – | 36.3 µM | – | 31.4 µM | – | 23.4 µM | 40.2 | – | 34.7 µM | – | 31.9 µM | 39.4 | – | – | – |
| COc1ccccc1C1(c2c(OC)c(=O)c2=O)SCCCS1 | – | > 100 µM | – | > 100 µM | > 100 | – | > 100 µM | – | > 100 µM | – | > 100 µM | > 100 | – | > 100 µM | – | > 100 µM | > 100 | – | – | – |
| CCCCCCCCCCCCCC[n+]1ccc(C)cc1 | 1.34 µM | 3.7 µM | 0.548 µM | 1.81 µM | 2.94 | 1.8 µM | 5.56 µM | 1.33 µM | 2.83 µM | 0.351 µM | 1.28 µM | 37 | 1.56 µM | 4.11 µM | 0.831 µM | 10.6 µM | 2.66 | 1.53 | 11.8 | 0.933 |
| COc1nc2ccc(COc3ccc(C(=O)O)cc3)cc2nc1OC | – | > 100 µM | – | > 100 µM | > 100 | – | > 100 µM | – | > 100 µM | – | > 100 µM | > 100 | – | > 100 µM | – | > 100 µM | > 100 | – | – | – |
| Nc1nc(Cl)c(Cl)c(NCC2(O)CCC2)n1 | – | > 100 µM | – | > 100 µM | > 100 | – | > 100 µM | – | > 100 µM | – | > 100 µM | > 100 | – | > 100 µM | – | 64.2 µM | 29.6 | – | – | – |
| CCC(C)C1=C(O)[N+]2([O-])Oc3ccc(-c4c(O)c(O)c(-c5ccc(OC(C)=O)cc5)c(OC(C)=O)c4OC(C)=O)cc3OC2(C(C)CC)C(=O)N1O (configuration not stated) | – | > 50 µM | – | > 50 µM | > 50 | – | > 50 µM | – | > 50 µM | – | > 50 µM | > 50 | – | > 50 µM | – | > 50 µM | > 50 | – | – | – |
| Cc1cc2nc3c(C#N)c4c(c(-c5ccc(Cl)cc5)n3c2cc1C)CCC4 | – | 49.1 µM | – | 40.3 µM | > 100 | – | 34.1 µM | – | 36 µM | – | 40.7 µM | > 100 | – | 75.4 µM | – | 52.1 µM | 42.9 | – | – | – |
| COc1cc2c(/C=C3/C(=O)N(C)c4ccc(O)cc43)c(Cl)[nH]c2cc1C | – | 15 µM | – | 6.35 µM | 16.9 | – | 3.13 µM | – | 17.9 µM | – | 0.597 µM | 5.59 | – | 17 µM | – | 5.93 µM | 13.6 | – | – | – |
| COC(=O)C1OC(O[C@H]2CC[C@]3(C)[C@H]4CC=C5[C@@H]6CC(C)(C)CC[C@]6(C(=O)OC6OCC(O)C(O)C6OC6OC(C)C(OC7OCC(O)C(O)C7O)C(OC7OCC(O)(CO)C7O)C6O)[C@H](O)C[C@@]5(C)[C@]4(C)CC[C@H]3C2(C)C)C(O)C(O)C1O (some centres not stated) | – | 7.56 µM | – | 16.6 µM | 12.6 | – | 24.9 µM | – | 5.82 µM | – | 23.2 µM | 18.2 | – | 3.6 µM | – | 15.3 µM | 17.5 | – | – | – |
| O=C1CSC(c2cccc(Cl)c2)N1c1ccc(-c2ccc(-n3c(-c4ccccc4)nc4ccccc4c3=O)cc2)cc1 (configuration not stated) | – | > 100 µM | – | 84.4 µM | > 100 | – | > 100 µM | – | > 100 µM | – | > 100 µM | > 100 | – | > 100 µM | – | 97.9 µM | > 100 | – | – | – |
| CCOC(=O)/C=C(\C(=O)OCC)n1cc(C)c(=O)n(Cc2cnnn2COCCOC(C)=O)c1=O | – | 42.7 µM | – | > 51.6 µM | 47.1 | – | > 100 µM | – | 41.7 µM | – | 26 µM | 43.7 | – | 36.2 µM | – | 28.9 µM | 8.06 | – | – | – |
| C/C(=N\O)c1cccc[n+]1Cc1ccccc1 | – | > 100 µM | – | > 100 µM | > 100 | – | > 100 µM | – | > 100 µM | – | > 100 µM | > 100 | – | > 100 µM | – | > 100 µM | > 100 | – | – | – |
| O=C(SCc1cccc2ccccc12)c1ccc(Cl)cc1 | – | > 100 µM | – | > 100 µM | > 100 | – | > 100 µM | – | > 100 µM | – | > 100 µM | > 100 | – | > 100 µM | – | > 100 µM | > 100 | – | – | – |
| OC1COC2CC(Nc3ccccn3)OC12 (configuration not stated) | – | > 100 µM | – | > 100 µM | > 100 | – | > 100 µM | – | > 100 µM | – | > 100 µM | > 100 | – | > 100 µM | – | > 100 µM | > 100 | – | – | – |
